According to patent publication US11918550B2, “Sensitization of cancer cells to differentiation therapy with mitochondrial uncoupler niclosamide ethanolamine” (The Board of Trustees of the Leland Stanford Junior …, priority 2020, dated 2024):

Experiments:
Format in all cases: cell-based
SK-N-BE(2) cells [1] = test: U-13C-glutamine isotope tracing (LC/MS)
Description: Metabolic analysis. For the metabolomics and isotope tracing analysis in vitro, cells were washed with cold PBS, lysed in 80% Ultra LC-MS acetonitrile on ice for 15 minutes, centrifuged at 20,000 g for 10 minutes at 4° C., and supernatant was subjected to mass spectrometry analysis. For the metabolomics analysis in vivo, 10-20 mg tissue were cut off on ice, rinsed if necessary to remove blood, and place in a 2 ml round-bottom cryovial. The tissues were homogenized by 3 times 10 s on/off bursts homogenization in 1 ml 80% methanol on dry ice. Transfer the homogenate to an Eppendorf tube and keep on liquid nitrogen while processing the remaining samples. Incubated all the samples in −80° C. for 30 minutes. After incubation, vortexed the samples for 5 seconds. Then centrifuged the samples at 20,000 g for 10 minutes at 4° C., and supernatant was subjected to mass spectrometry analysis. Resuspend the remaining cellular pellet in 100 ul protein lysis buffer and determine the protein concentration. Then calculate the total protein content per sample.
Liquid chromatography was performed using an Agilent 1290 Infinity LC system (Agilent, Santa Clara, US) coupled to a Q-TOF 6545 mass spectrometer (Agilent, Santa Clara, US). A hydrophilic interaction chromatography method (HILIC) with a BEH amide column (100×2.1 mm i.d., 1.7 μm; Waters) was used for compound separation at 35° C. with a flow rate of 0.3 ml/minutes. The mobile phase A consisted of 25 mM ammonium acetate and 25 mM ammonium hydroxide in water and mobile phase B was acetonitrile. The gradient elution was 0-1 minute, 85% B; 1-12 minutes, 85% B→65% B; 12-12.2 minutes, 65% B→40% B; 12.2-15 minutes, 40% B. After the gradient, the column was re-equilibrated at 85% B for 5 minutes. The overall runtime was 20 minutes, and the injection volume was 5 μL. Agilent Q-TOF was operated in negative mode and the relevant parameters were as listed: ion spray voltage, 3500 V; nozzle voltage, 1000 V; fragmentor voltage, 125 V; drying gas flow, 11 L/minutes; capillary temperature, 325° C., drying gas temperature, 350° C.; and nebulizer pressure, 40 psi. A full scan range was set at 50 to 1600 (m/z). The reference mass was 119.0363 and 980.0164. The acquisition rate was 2 spectra/s. Targeted analysis, isotopologues extraction and natural isotope abundance correction were performed by Agilent Profinder B.10.00 (Agilent Technologies).
Stable isotope tracing analysis. […] Then the culture medium was changed to DMEM/F-12, no glutamine (Gibco, 21331020) with 4 mM U-^13C5-glutamine (Cambridge Isotope Laboratories, CLM-1822-H) and 10% dialyzed FBS (Gibco, 26400044) under same treatment condition as above for 2 h. […] Then changed the medium to DMEM/F-12, no glutamine (Gibco, 21331020) with 4 mM 1-^13C-glutamine (Cambridge Isotope Laboratories, CLM-CLM-3612-PK) and 10% dialyzed FBS (Gibco, 26400044) for 2 h with same treatment under normoxia or hypoxia for 2 h.

NB16 cells = test: Neurite outgrowth and β-tubulin III immunofluorescence (neuron differentiation); settings: 72-96 h
Description: (§1) Neurite outgrowth assay. The quantification of neurite was performed as described before. Shortly, 1×10^4 SK-N-BE(2) and NB16 cells were plated in a 12 well-plate per well. After overnight incubation, cells were treated with various conditions as indicated for 72 h. Then, images were taken by a Leica Florescent Microscope DMi8 in phase contrast mode (20× magnification). The lengths of the neurites were traced and quantified using the ImageJ plugin NeuronJ. For each sample, total neurite length was measured and normalized to the number of cell bodies, mean value from 3 biological replicates was reported. Immunofluorescence staining. SK-N-BE(2) and NB16 cells were seeded into 8-chamber slides (Thermo Fisher Scientific, 154534) with a density of 6×10^3 cells/well overnight and treated with indicated treatment for 72 h. Cells were fixed with 4% PFA in PBS with 0.1% Tween-20 at RT for 30 minutes followed by permeabilization with 0.1% Triton X-100 in PBS at room temperature for 10 min. The cells were washed with PBS twice and blocked with 2.5% horse serum in PBS at RT for 1 h. Then, cells were subjected to immunofluorescence staining with primary antibody at 4° C. overnight. After two washes with PBS, cells were incubated with Alexa Fluor 594-conjugated anti-rabbit secondary antibody (Life Technologies) at RT for 1 h followed by staining with DAPI (Vector Laboratories, H-1800-2). Images were acquired with Leica DMi8 microscope.

SK-N-BE(2) cells [2] = test: as above; settings: 72-96 h
Description: as §1

SK-N-BE(2) cells [3] = test: Methylated DNA Immunoprecipitation (MeDIP)-qRT-PCR; settings: 1 μM NEN 5 h
Description: Methylated DNA Immunoprecipitation. 5×10^5 SK-N-BE(2) cells were plated in 60 mm dishes. […] After treatment, the cells were collected for DNA extraction as described above. 10 μg genomic DNA was sheared using a Bioruptor® Plus sonicator (Diagenode, UCD-300) to 550 bp fragments according to the instrument manual. Agarose electrophoresis was employed to examine the sizes of DNA fragments. The sonicated DNA samples were denatured at 95° C. for 15 minutes, then kept on ice immediately for at least 5 minutes. 200 ng denatured DNA was transferred to a new tube for input control and diluted with EDTA-free TE buffer to 100 μl total volume. For each pulldown reaction, transfer 600 ng of denatured DNA solution to new tubes and add EDTA-free TE buffer to 300 μl total volume. Add 2 μl antibody (5-mc or IgG control) and 20 μl prewashed Dynabeads™ Protein A (Invitrogen™, 10001 D) into the tubes and incubate the samples at 4° C. for 60 minutes with rotation. After incubation, place the tubes in magnetic rack for 30 s to allow the beads separate from solution. Remove the solution carefully without disturbing the beads. Wash the beads for 4 times by IP buffer (0.01% SDS, 1% Triton X-100, 2 mM EDTA, 20 mM Tris-HCl pH 8.1, 150 mM NaCl). DNA was eluted by resuspending the beads in 100 μl of digestion buffer (10 mM Tris pH 8.0, 1 mM EDTA, 1% SDS, 1 μg/μl proteinase K) and incubated for 6 hr at 65° C. […]

[4] = 1 μM NEN 3 h pretreatment then 2 h label

Compound: O=C(Nc1ccc([N+](=O)[O-])cc1Cl)c1cc(Cl)ccc1O [NEN, 5-chloro-N-(2-chloro-4-nitrophenyl)-2-hydroxybenzamide compound with 2-aminoethanol (1:1)]
- labelling abundance of m+2 (2nd cycle) and m+½ (3rd cycle) aspartate (SK-N-BE(2) cells [1]; [4]): significantly increased
- labelling abundance of m+2 (2nd cycle) and m+½ (3rd cycle) succinate (SK-N-BE(2) cells [1]; [4]): significantly increased
- labelling percentage of m+3 (2nd cycle) α-KG (SK-N-BE(2) cells [1]; [4]): significantly increased
- labelling percentage of m+½ (3rd cycle) α-KG (SK-N-BE(2) cells [1]; [4]): significantly increased
- m+5 labelling abundance of 2-HG (SK-N-BE(2) cells [1]; [4]): significantly decreased
- m+5 α-KG labelling from U-13C-glutamine (SK-N-BE(2) cells [1]; [4]): no significant increase
- reductive carboxylation flux (labelling fraction of m+5 citrate, m+3 fumarate, m+3 malate) (SK-N-BE(2) cells [1]; U-13C-glutamine, 1 μM NEN, normoxia): significantly inhibited
- neuron differentiation morphology, NEN combined with RA vs NEN alone (NB16 cells; NB16, 1 μM NEN + 1 μM 13-cis-RA): more profound
- neuron differentiation morphology (neurite length, β-tubulin III staining) (NB16 cells; NB16, 1 μM NEN alone): induced
- neuron differentiation morphology, NEN combined with RA vs NEN alone (SK-N-BE(2) cells [2]; 1 μM NEN + 1 μM 13-cis-RA): more profound
- neuron differentiation morphology (neurite length, β-tubulin III staining) (SK-N-BE(2) cells [2]; 1 μM NEN alone): induced
- methylation on promoter region of genes in RAR signaling (SK-N-BE(2) cells [3]): reduced
